We go through 32 sequences from US20260250318A1, “COMPOSITIONS AND METHODS FOR CROSSING THE BLOOD BRAIN BARRIER” (VOYAGER THERAPEUTICS, INC., priority 2022, published 2026).

The first assay relates to brain, spinal cord, and DRG of the NHPs. As to the kind of experiment: NGS fold enrichment of synthetic library (passage 3) in NHPs, first cross-species screen. The format is in vivo, cynomolgus macaques (Macaca fascicularis). The conditions noted are these: synthetic library passage 3, intravenous, RNA NGS, brain of NHPs, relative to wild-type AAV9. An outline of the steps:
(§1)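 Fold enrichment versus wild-type AAV9 was derived by NGS of RT-PCR-amplified RNA from nervous tissue, collected e.g. 28 days after IV dosing […]. The library (passage 3) was given to two NHPs aged 2-4 years and to 6-8-week BALB/c and C57Bl/6 mice (n=3 each).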
For GSTGIVSSGQNQQT, the “Fold enrichment over AAV9 in the brain of NHPs” value is 1.570 fold.
With GSGQNQQLSGKSVT, the “Fold enrichment over AAV9 in the brain of NHPs” value was found to be 1.070 fold.
The same measure, in the same setting: the value for GSKGVPTPGQNQQT was 2.625 fold; that for GLLAGKSSGQNQQT was 1.491 fold.
The same measure, in the same setting: as for GPGLGSHSGQNQQT, the figure is 1.906 fold; as for GSSHRFYGGQNQQT, 4.732 fold; as for GHHTTVQSGQNQQT, 2.177 fold.
Same read-out and setting: the value for GPGLPNHSGQNQQT was 2.486 fold; that for GVVHITNSGQNQQT was 1.969 fold.
With GSGQNQQASLAMRT, the “Fold enrichment over AAV9 in the brain of NHPs” value stood at 1.910 fold.
The same measure, in the same setting: as for GSGQNQQTTASSHT, the figure is 1.618 fold; as for GSGQNQQVHLSTGT, 1.811 fold; as for GSGAITHMPQNQQT, 1.695 fold.
On the same count and under the same terms, the value for GSGSLRDFDQNQQT was 2.120 fold.
For GSGKNQQRPGLDQT, the “Fold enrichment over AAV9 in the brain of NHPs” value came out at 1.089 fold.
Still for that read-out and setting: as for GSHSQSGHGQNQQT, the figure is 1.413 fold; as for GSSQSTGYQPNQQT, 1.847 fold; as for GSGQNQHSAPNSQT, 2.134 fold.
On the same count and under the same terms, the value for GSGQNQQVIPNSKT was 1.548 fold; that for GAGVHMVSGQNQQT was 1.987 fold; that for GSGQLIASVVNQQT was 1.005 fold.
The same measure, in the same setting: the value for GSGQNQQTPLRPPT was 1.624 fold.

The assay is the same for the next values; noted with them: synthetic library passage 3, intravenous, RNA NGS, spinal cord of NHPs, relative to wild-type AAV9.
For the sequence GSTGIVSSGQNQQT, the “Fold enrichment over AAV9 in the spinal cord of NHPs” value turned out to be 0.927 fold.
Still for that read-out and setting: as for GSGQNQQLSGKSVT, the figure is 1.524 fold; as for GSKGVPTPGQNQQT, 1.292 fold.
On the same count and under the same terms, the value for GLLAGKSSGQNQQT was 2.981 fold.
Same read-out and setting: the value for GPGLGSHSGQNQQT was 14.563 fold.
As for GSSHRFYGGQNQQT, the “Fold enrichment over AAV9 in the spinal cord of NHPs” value amounted to 0.000 fold.
Same read-out and setting: as for GHHTTVQSGQNQQT, the figure is 6.245 fold.
As to GPGLPNHSGQNQQT, the “Fold enrichment over AAV9 in the spinal cord of NHPs” value stood at 1.992 fold.
Still for that read-out and setting: the value for GVVHITNSGQNQQT was 0.504 fold.
On the same count and under the same terms, as for GSGQNQQASLAMRT, the figure is 3.577 fold; as for GSGQNQQTTASSHT, 7.404 fold.
Still for that read-out and setting: the value for GSGQNQQVHLSTGT was 0.266 fold.
With GSGAITHMPQNQQT, the “Fold enrichment over AAV9 in the spinal cord of NHPs” value is given as 1.681 fold.
Still for that read-out and setting: as for GSGSLRDFDQNQQT, the figure is 6.846 fold; as for GSGKNQQRPGLDQT, 1.557 fold.
The same measure, in the same setting: as for GSHSQSGHGQNQQT, the figure is 1.240 fold; as for GSSQSTGYQPNQQT, 3.388 fold; as for GSGQNQHSAPNSQT, 4.143 fold.
On the same count and under the same terms, the value for GSGQNQQVIPNSKT was 1.036 fold; that for GAGVHMVSGQNQQT was 6.488 fold; that for GSGQLIASVVNQQT was 0.086 fold.
Take GSGQNQQTPLRPPT: the “Fold enrichment over AAV9 in the spinal cord of NHPs” value is on record as 0.352 fold.

Still in this assay, the particulars now being: synthetic library passage 3, intravenous, RNA from brain of NHPs, NGS, relative to wild-type AAV9.
GSGIPAPRLQNQQT: the “Fold enrichment over AAV9 in the brain of NHPs” value stood at 1.273 fold.
The same measure, in the same setting: as for GASSLATSGQNQQT, the figure is 1.337 fold; as for GSGQNQQKVSPLLT, 1.314 fold.
Still for that read-out and setting: the value for GSPGVSPSGQNQQT was 1.178 fold.
For the sequence GEKAVTSSGQNQQT, the “Fold enrichment over AAV9 in the brain of NHPs” value was 1.402 fold.
On the same count and under the same terms, as for GEVSRVLSGQNQQT, the figure is 1.318 fold; as for GSGQKMWKLDNQQT, 1.341 fold; as for GSGQNQQTALYNNT, 1.307 fold.
The same measure, in the same setting: the value for GSGVSARMVQNQQT was 1.299 fold; that for GRLSNAHGGQNQQT was 1.245 fold.

The assay is the same for the next values; noted with them: synthetic library passage 3, intravenous, RNA from spinal cord of NHPs, NGS, relative to wild-type AAV9.
Regarding GSGIPAPRLQNQQT, the “Fold enrichment over AAV9 in the spinal cord of NHPs” value was 4.162 fold.
The same measure, in the same setting: the value for GASSLATSGQNQQT was 0.703 fold.
Same read-out and setting: the value for GSGQNQQKVSPLLT was 1.602 fold.
On the same count and under the same terms, the value for GSPGVSPSGQNQQT was 3.006 fold; that for GEKAVTSSGQNQQT was 0.998 fold.
For GEVSRVLSGQNQQT, the “Fold enrichment over AAV9 in the spinal cord of NHPs” value was 0.437 fold.
Still for that read-out and setting: as for GSGQKMWKLDNQQT, the figure is 0.000 fold; as for GSGQNQQTALYNNT, 0.862 fold; as for GSGVSARMVQNQQT, 0.624 fold.
Still for that read-out and setting: the value for GRLSNAHGGQNQQT was 0.839 fold.

A further assay has as its system brain. As to the kind of experiment: NGS fold enrichment of synthetic library (passage 3) in BALB/c mice, first cross-species screen. It counts as in vivo. The conditions noted are these: synthetic library passage 3, intravenous, RNA NGS, brain of BALB/c mice, relative to wild-type AAV9. Put shortly: as §1
With GSTGIVSSGQNQQT, the “Fold enrichment over AAV9 in the brain of Mice (BALB/c)” value (shortened to “Fold enrichment over AAV9 … (BALB/c)”) was 1.046 fold.
In the case of GSGQNQQLSGKSVT, the “Fold enrichment over AAV9 … (BALB/c)” value amounted to 0.930 fold.
Same read-out and setting: the value for GSKGVPTPGQNQQT was 0.459 fold; that for GLLAGKSSGQNQQT was 0.946 fold; that for GPGLGSHSGQNQQT was 1.195 fold.
Same read-out and setting: as for GSSHRFYGGQNQQT, the figure is 0.110 fold; as for GHHTTVQSGQNQQT, 0.755 fold; as for GPGLPNHSGQNQQT, 0.659 fold.
On the same count and under the same terms, the value for GVVHITNSGQNQQT was 0.846 fold; that for GSGQNQQASLAMRT was 1.638 fold; that for GSGQNQQTTASSHT was 0.678 fold.
Take GSGQNQQVHLSTGT: the “Fold enrichment over AAV9 … (BALB/c)” value is listed as 0.455 fold.
Same read-out and setting: the value for GSGAITHMPQNQQT was 0.411 fold; that for GSGSLRDFDQNQQT was 0.272 fold.
With GSGKNQQRPGLDQT, the “Fold enrichment over AAV9 … (BALB/c)” value was 0.385 fold.
Still for that read-out and setting: the value for GSHSQSGHGQNQQT was 0.318 fold; that for GSSQSTGYQPNQQT was 0.577 fold.
On to GSGQNQHSAPNSQT, for which the “Fold enrichment over AAV9 … (BALB/c)” value is listed as 0.731 fold.
As to GSGQNQQVIPNSKT, the “Fold enrichment over AAV9 … (BALB/c)” value came out at 0.376 fold.
The same measure, in the same setting: as for GAGVHMVSGQNQQT, the figure is 0.791 fold; as for GSGQLIASVVNQQT, 0.359 fold.
On the same count and under the same terms, the value for GSGQNQQTPLRPPT was 0.472 fold.

Staying with this assay, now noted: synthetic library passage 3, intravenous, RNA from brain of BALB/c mice, NGS, relative to wild-type AAV9.
As to GSGIPAPRLQNQQT, the “Fold enrichment over AAV9 … (BALB/c)” value turned out to be 0.396 fold.
Still for that read-out and setting: as for GASSLATSGQNQQT, the figure is 0.217 fold.
As for GSGQNQQKVSPLLT, the “Fold enrichment over AAV9 … (BALB/c)” value is recorded as 0.806 fold.
Still for that read-out and setting: as for GSPGVSPSGQNQQT, the figure is 1.160 fold; as for GEKAVTSSGQNQQT, 0.327 fold.
The same measure, in the same setting: as for GEVSRVLSGQNQQT, the figure is 0.440 fold.
GSGQKMWKLDNQQT: the “Fold enrichment over AAV9 … (BALB/c)” value was 1.418 fold.
On the same count and under the same terms, the value for GSGQNQQTALYNNT was 0.726 fold; that for GSGVSARMVQNQQT was 0.697 fold.
On the same count and under the same terms, the value for GRLSNAHGGQNQQT was 0.725 fold.

The test system of another assay is brain. As to the kind of experiment: NGS fold enrichment of synthetic library (passage 3) in C57Bl/6 mice, first cross-species screen. The format is in vivo. The conditions noted are these: synthetic library passage 3, intravenous, RNA NGS, brain of C57Bl/6 mice, relative to wild-type AAV9. Put shortly:
as §1
Consider GSTGIVSSGQNQQT, for which the “Fold enrichment over AAV9 in the brain of Mice (C57Bl/6)” value (“Fold enrichment over AAV9 … (C57Bl/6)” below) turned out to be 2.141 fold.
As for GSGQNQQLSGKSVT, the “Fold enrichment over AAV9 … (C57Bl/6)” value turned out to be 1.276 fold.
The same measure, in the same setting: as for GSKGVPTPGQNQQT, the figure is 1.452 fold; as for GLLAGKSSGQNQQT, 0.999 fold; as for GPGLGSHSGQNQQT, 0.880 fold.
The same measure, in the same setting: as for GSSHRFYGGQNQQT, the figure is 0.787 fold; as for GHHTTVQSGQNQQT, 0.851 fold; as for GPGLPNHSGQNQQT, 1.197 fold.
On the same count and under the same terms, as for GVVHITNSGQNQQT, the figure is 0.794 fold; as for GSGQNQQASLAMRT, 2.066 fold.
Turning to GSGQNQQTTASSHT, the “Fold enrichment over AAV9 … (C57Bl/6)” value is on record as 0.745 fold.
Same read-out and setting: as for GSGQNQQVHLSTGT, the figure is 1.011 fold.
Same read-out and setting: the value for GSGAITHMPQNQQT was 0.647 fold; that for GSGSLRDFDQNQQT was 0.586 fold; that for GSGKNQQRPGLDQT was 0.583 fold.
The same measure, in the same setting: the value for GSHSQSGHGQNQQT was 0.696 fold; that for GSSQSTGYQPNQQT was 0.522 fold; that for GSGQNQHSAPNSQT was 1.187 fold.
GSGQNQQVIPNSKT: the “Fold enrichment over AAV9 … (C57Bl/6)” value was 0.844 fold.
The same measure, in the same setting: the value for GAGVHMVSGQNQQT was 1.055 fold.
Same read-out and setting: as for GSGQLIASVVNQQT, the figure is 0.197 fold; as for GSGQNQQTPLRPPT, 0.874 fold.

The assay is the same for the next values; noted with them: synthetic library passage 3, intravenous, RNA from brain of C57Bl/6 mice, NGS, relative to wild-type AAV9.
GSGIPAPRLQNQQT: the “Fold enrichment over AAV9 … (C57Bl/6)” value is recorded as 0.583 fold.
The same measure, in the same setting: as for GASSLATSGQNQQT, the figure is 0.423 fold; as for GSGQNQQKVSPLLT, 0.755 fold.
With GSPGVSPSGQNQQT, the “Fold enrichment over AAV9 … (C57Bl/6)” value was 0.853 fold.
On the same count and under the same terms, as for GEKAVTSSGQNQQT, the figure is 0.558 fold.
Same read-out and setting: the value for GEVSRVLSGQNQQT was 1.150 fold; that for GSGQKMWKLDNQQT was 0.990 fold; that for GSGQNQQTALYNNT was 0.660 fold.
GSGVSARMVQNQQT: the “Fold enrichment over AAV9 … (C57Bl/6)” value is recorded as 0.870 fold.
With GRLSNAHGGQNQQT, the “Fold enrichment over AAV9 … (C57Bl/6)” value is on record as 1.036 fold.
